Experiment [1] concerns Caco-2. Nature of the experiment: Effect in human Caco-2 cells assessed as IL-1-beta-induced IL8 production relative to control at 50 uM after 24 hrs by ELISA. The note with it: Caco-2, 24 h.
Experiment [2] deals with Caco-2. Nature of the experiment: Effect in human Caco-2 cells assessed as IL-1-beta-induced IL8 production relative to control at 5 uM after 24 hrs by ELISA. The note with it: Caco-2, 24 h.

Among the data in ChEMBL document CHEMBL1240427, “Chemistry around imidazopyrazine and ibuprofen: discovery of novel fatty acid amide hydrolase (FAAH) inhibitors” (Eur J Med Chem, 2010) are level, % of control values, retold here.

Each structure is given as a SMILES string.

As for `CON(C)C(=O)C(C)c1ccc(CC(C)C)cc1` (configuration not stated), the level, % of control at 50 µM in the experiment with Caco-2 [1] amounted to 55%. The same measure, in the same setting: next, `CC(C)Cc1ccc(C(C)C(=O)CCl)cc1` (configuration not stated): 70%. On to `N=c1c(-c2ccccc2)nc2c[nH]c(-c3ccc(O)cc3)cn1-2`, for which the level, % of control at 50 µM in the experiment on Caco-2 [1] turned out to be 56%. In addition, the level, % of control at 5 µM in the experiment on Caco-2 [2] was 75%. Consider `CC(C)Cc1ccc(C(C)C(=O)/C=N/O)cc1` (configuration not stated), for which the level, % of control at 50 µM with Caco-2 [1] came to 290%.

Consider `CC(C)Cc1ccc(C(C)C(=O)n2nnc3ccccc32)cc1` (configuration not stated), for which the level, % of control at 50 µM with Caco-2 [1] was found to be 76%. Same read-out and setting: then `Oc1ccc(-c2cn3c(O)c(-c4ccccc4)nc3cn2)cc1`, with 65%.
